Our source for the Ratio IC50 and Activity values is ChEMBL document CHEMBL1139880, “Potent and selective agonists of human melanocortin receptor 5: cyclic analogues of alpha-melanocyte-stimulating hormone” (J Med Chem, 2007).

The target in test [1] is Melanocortin receptor (M4 and M5) (Homo sapiens) (UniProt P32245+P33032). As to the kind of experiment: Selectivity for human cloned MC5R over human cloned MC4R. The test is classed as protein assay.
The species entered for test [2] is Homo sapiens. The test can be described thus: Selectivity for human cloned MC5R over human cloned MC1bR.
Test [3] deals with T1, Melanocortin receptor 4 (Homo sapiens, UniProt P32245). As to the kind of experiment: Agonist activity at human MC4R expressed in CHO cells assessed as cAMP accumulation at 5 uM relative to [125I]NDPalphaMSH. The following applies: filed as agonist. The test is classed as functional, cell-based. In general terms: Changes in cAMP serve as a functional read-out for many G protein-coupled receptors.

The species entered for test [4] is Homo sapiens. As to the kind of experiment: Selectivity for human cloned MC5R over human cloned MC3R.
For test [5], the target named is T2, Melanocortin receptor 3 (Homo sapiens, UniProt P41968). The test can be described thus: Agonist activity at human MC3R expressed in CHO cells assessed as cAMP accumulation at 5 uM relative to [125I]NDPalphaMSH. The test is classed as functional, cell-based.
The target of test [6] is T2, Melanocortin receptor 3. As to the kind of experiment: Agonist activity at human MC3R expressed in CHO cells assessed as cAMP accumulation at 2 uM relative to [125I]NDPalphaMSH. The test is classed as functional, cell-based.
Test [7] concerns the target T1, Melanocortin receptor 4. The test can be described thus: Agonist activity at human MC4R expressed in CHO cells assessed as cAMP accumulation at 2 uM relative to [125I]NDPalphaMSH. The test is classed as functional, cell-based. The following applies: filed as partial agonist.
The target of test [8] is T1, Melanocortin receptor 4. The test can be described thus: Agonist activity at human MC4R expressed in CHO cells assessed as cAMP accumulation at […] relative to [125I]NDPalphaMSH. The format is functional, cell-based. The following applies: filed as partial agonist.
The target in test [9] is T1, Melanocortin receptor 4. The test can be described thus: Agonist activity at human MC4R expressed in CHO cells assessed as cAMP accumulation at […] relative to [125I]NDPalphaMSH.
The target in test [10] is T2, Melanocortin receptor 3. As to the kind of experiment: Agonist activity at human MC3R expressed in CHO cells assessed as cAMP accumulation at […] relative to [125I]NDPalphaMSH. The format is functional, cell-based.

Some results are limits rather than exact numbers.

T2 sequence (P41968 whole entry): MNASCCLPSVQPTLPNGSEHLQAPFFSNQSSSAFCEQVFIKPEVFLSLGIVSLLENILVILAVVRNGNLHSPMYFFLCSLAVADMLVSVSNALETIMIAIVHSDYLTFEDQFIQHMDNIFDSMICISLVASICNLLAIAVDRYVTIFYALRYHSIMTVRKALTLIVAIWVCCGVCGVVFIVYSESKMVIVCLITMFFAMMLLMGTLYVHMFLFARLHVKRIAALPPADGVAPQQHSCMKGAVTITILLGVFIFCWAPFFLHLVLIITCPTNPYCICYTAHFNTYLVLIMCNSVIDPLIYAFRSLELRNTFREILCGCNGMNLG
Melanocortin receptor (M4 and M5) (Homo sapiens), sequence (P32245 whole entry, looked up): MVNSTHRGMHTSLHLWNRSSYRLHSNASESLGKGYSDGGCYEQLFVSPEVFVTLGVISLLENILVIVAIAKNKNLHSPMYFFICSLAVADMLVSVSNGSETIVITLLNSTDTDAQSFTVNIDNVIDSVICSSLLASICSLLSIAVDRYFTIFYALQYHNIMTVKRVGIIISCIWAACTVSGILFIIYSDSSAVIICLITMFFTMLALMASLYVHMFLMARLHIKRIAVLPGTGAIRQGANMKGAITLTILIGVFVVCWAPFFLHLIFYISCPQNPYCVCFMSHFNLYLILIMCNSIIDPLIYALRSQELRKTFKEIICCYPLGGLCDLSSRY
Melanocortin receptor (M4 and M5) (Homo sapiens), sequence (P33032 whole entry, looked up): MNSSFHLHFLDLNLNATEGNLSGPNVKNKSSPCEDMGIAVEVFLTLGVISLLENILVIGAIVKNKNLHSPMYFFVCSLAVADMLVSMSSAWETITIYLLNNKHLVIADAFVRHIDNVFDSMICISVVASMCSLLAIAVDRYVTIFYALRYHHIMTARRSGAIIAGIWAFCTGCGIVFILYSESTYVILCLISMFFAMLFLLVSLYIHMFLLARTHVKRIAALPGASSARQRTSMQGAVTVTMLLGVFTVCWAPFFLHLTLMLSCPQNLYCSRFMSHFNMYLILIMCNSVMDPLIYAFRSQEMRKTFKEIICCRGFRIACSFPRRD
T1 sequence (P32245 whole entry): as the sequence (P32245 whole entry, looked up) above

Consider `CCCC[C@H](NC(C)=O)C(=O)N[C@H]1CC(=O)NCCCC[C@@H](C(N)=O)NC(=O)[C@H](Cc2c[nH]c3ccccc23)NC(=O)[C@@H]2CCCN2C(=O)[C@H](Cc2ccc(-c3ccccc3)cc2)NC(=O)[C@@H]2CC3CCCCC3N2C1=O` (some centres undefined), for which the Ratio IC50 in [1] is 470; in test [2], 780; in test [4], 440. For the same compound, the Activity in test [3] is 97%; in test [5] it was 1%.

In the case of `CCCC[C@H](NC(C)=O)C(=O)N[C@H]1CC(=O)NCCCC[C@@H](C(N)=O)NC(=O)[C@H](Cc2c[nH]c3ccccc23)NC(=O)[C@@H]2CCCCN2C(=O)[C@H](Cc2ccc(-c3ccccc3)cc2)NC(=O)[C@@H]2CC3CCCCC3N2C1=O` (some centres undefined), the Ratio IC50 in test [1], in [2] and in test [4] was above 5000 in each case. The Activity in test [6] is 5%; in [7], 40%.

In the case of `CCCC[C@H](NC(C)=O)C(=O)N[C@H]1CC(=O)NCCCC[C@@H](C(N)=O)NC(=O)[C@H](Cc2c[nH]c3ccccc23)NC(=O)[C@@H]2CCCCN2C(=O)[C@H](Cc2ccc(-c3ccccc3)cc2)NC(=O)[C@H](Cc2c[nH]cn2)NC1=O`, the Ratio IC50 amounted to 790 in [1], 8 in [2] and 1940 in test [4]. Further, the Activity in test [8] is 41%.

Turning to `CCCC[C@H](NC(C)=O)C(=O)N[C@H]1CC(=O)NCCCC[C@@H](C(N)=O)NC(=O)[C@H](Cc2c[nH]c3ccccc23)NC(=O)[C@@H]2CCCCN2C(=O)[C@H](Cc2ccc(-c3ccccc3)cc2)NC(=O)[C@@H]2Cc3ccccc3CN2C1=O`, the Ratio IC50 in test [1] was 260; in test [2], 260; in test [4] it was 1440. Moreover, the figures for the Activity in test [9] and in test [10] were 0% and 10%, respectively.
